Measurements published in US4518528A, “α Amino fluoro ketones” (priority 1984, dated 1985).
Each block holds one molecule with its values, some of them ahead of it. Where a SMILES comes first, the peptide text is derived from it. [ ]: non-standard residue; d: D form. The star is where a group is joined. ξ: configuration not given here. ξF = NC(Cc1ccccc1)C(=O)O; Cbz = O=C(OCc1ccccc1)*; CH2F = FC*

Experiments:
[1] = system: plasma kallikrein; assay: Inhibition of plasma kallikrein by the method of Example 23; assay type: biochemical; conditions: protease about 10 μM, ketone inhibitor about 0.1 mM
Experimental: (§1) An aqueous solution of elastase (0.3 μM) in 0.1M TES pH 8.2 containing CaCl2 (10 mM) was assayed against the synthetic substrate MeOSuc-Ala-Ala-Pro-Val-MNA. The liberated detecting group (MNA) was quantitated by fluorescence. A standard number of enzyme units were preincubated with each inhibitor at several concentrations for set time periods of 5, 15, 30, and 60 minutes at 37°; then all test samples were individually assayed for activity using the same synthetic substrate and conditions as per control with inhibitors absent. The amount of enzyme activity inhibited by each inhibitor was determined by subtracting the residual activity for each inhibitor against the control activity.
Following the method of Example 23, above, the serine protease plasma kallikrein is inhibited by the ketone inhibitor D-Pro-Phe-ArgCH2 F under the same conditions with a protease concentration of about 10 μM and ketone inhibitor concentration of about 0.1 mM.

[2] = system: glandular kallikrein; assay: Inhibition of glandular kallikrein by the method of Example 23; assay type: biochemical; conditions: protease about 10 μM, ketone inhibitor about 0.1 mM
Experimental: as §1
Following the method of Example 23 above, the serine protease glandular kallikrein is inhibited by the ketone inhibitor D-Val-Leu-ArgCH2 F with a protease concentration of about 10 μM and a ketone inhibitor concentration of about 0.1 mM.

[3] = system: plasminogen activator; assay: Inhibition of plasminogen activator by the method of Example 23; assay type: biochemical; conditions: protease about 50 μM, ketone inhibitor about 0.1 mM
Experimental: as §1
Following the method of Example 23, above, the serine protease plasminogen activator is inhibited by MeOSuc-Gly-Gly-ArgCH2 F under the same conditions with a protease concentration of about 50 μM and a ketone inhibitor concentration of about 0.1 mM.

[4] = system: trypsin; assay: Inhibition of trypsin by the method of Example 23; assay type: biochemical; conditions: protease about 10 μM, ketone inhibitor about 0.1 mM
Experimental: as §1
Following the method of Example 23 above, the serine protease trypsin is inhibited by the ketone inhibitor Z-LysCH2 F with a protease concentration of about 10 μM and a ketone inhibitor concentration of about 0.1 mM.

[5] = target: T1, cathepsin B (Rattus norvegicus, UniProt P00787); assay: Rate of inhibition of cathepsin B in rat tissue homogenates; assay type: biochemical; conditions: inhibitor 0.10 μM, 25°
T1 construct: cathepsin B in rat spleen, pancreas, liver and kidney tissue homogenates; from tissue; host or cells: rat spleen, pancreas, liver and kidney (supernatant of homogenates)
Experimental: (§2) Enzyme activity was assayed using the synthetic oligopeptide substrate Bz-Val-Lys-Arg-AFC with 10 mM DTT and 1 mM of the activator salt EDTA at pH 6.5 by fluorescence detection of the liberated AFC. Units of enzyme activity were standardized per 100 ml of a 50 percent of glycerol-phosphate buffer solution. A standard concentration of enzyme (10 nM) was preincubated with each inhibitor (50 nM) over set time periods of 3, 5, 10, 15, 20 and 30 minutes, 25°; then all test samples were individually assayed for activity using the same synthetic substrate and condition to determine the remaining units of activity of the purified enzyme. The amount of enzyme activity inhibited by each inhibitor was determined by subtracting the residual activity for each inhibitor against the control activity. […] The inhibitor specificity constant (k3 /KI) for Z-Phe-AlaCH2 F is 30 fold higher than for Z-Phe-AlaCHN2.
The rate of inhibition of cathepsin B in rat spleen, pancreas, liver and kidney tissue homogenates was assayed using the inhibitors: Z-Phe-AlaCHN2; Z-Phe-AlaCH2 Cl; and Z-Phe-AlaCH2 F.
The proceding tissues were homogenized, centrifuged at 13,000 rpm for 25 minutes and the supernatant removed. Aliquots of the supernatant were diluted with water to yield a concentration of 0.01 μM. The method of Example 9 was followed. As soon in Table III, the inhibition by the three inhibitors relevant to Cathepsin B were compared for each of the tissue samples. Results are expressed as .tau. (the half-time of inactivation, inhibition). […] The concentration for the inhibitors was 0.10 μM and the incubation temperature was 25°.

[6] = system: cathepsin L; assay: Inhibition of cathepsin L by the method of Example 22; assay type: biochemical; conditions: same conditions and concentrations of protease to ketone inhibitor as Example 22
Experimental: Enzyme activity was assayed using the synthetic oligopeptide substrate Bz-Val-Lys-Arg-AFC with 10 mM DTT and 1 mM of the activator salt EDTA at pH 6.5 by fluorescence detection of the liberated AFC. Units of enzyme activity were standardized per 100 ml of a 50 percent of glycerol-phosphate buffer solution. A standard concentration of enzyme (10 nM) was preincubated with each inhibitor (50 nM) over set time periods of 3, 5, 10, 15, 20 and 30 minutes, 25°; then all test samples were individually assayed for activity using the same synthetic substrate and condition to determine the remaining units of activity of the purified enzyme. The amount of enzyme activity inhibited by each inhibitor was determined by subtracting the residual activity for each inhibitor against the control activity.

[7] = system: porcine pancreatic elastase; assay: Irreversible inhibition of elastase, fluorescence assay with MeOSuc-Ala-Ala-Pro-Val-MNA; assay type: biochemical; conditions: alkaline conditions (0.1M TES pH 8.2, 10 mM CaCl2), 37°
Experimental: as §1

[8] = system: cathepsin B; assay: Irreversible inhibition of purified cathepsin B, fluorescence assay with Bz-Val-Lys-Arg-AFC; assay type: biochemical, human and rat; conditions: for k3 (rate constant of inactivation) / Ki: pH 6.5, 10 mM DTT, 1 mM EDTA, 25°; for Ki: read-out: KI (inhibitor dissociation constant); for k3 /KI (inhibitor specificity constant): pH 6.5, 25°
Experimental: as §2, with “([…])” for “(10 nM) was preincubated with each inhibitor (50 nM)”

T1 sequence (P00787 80-339): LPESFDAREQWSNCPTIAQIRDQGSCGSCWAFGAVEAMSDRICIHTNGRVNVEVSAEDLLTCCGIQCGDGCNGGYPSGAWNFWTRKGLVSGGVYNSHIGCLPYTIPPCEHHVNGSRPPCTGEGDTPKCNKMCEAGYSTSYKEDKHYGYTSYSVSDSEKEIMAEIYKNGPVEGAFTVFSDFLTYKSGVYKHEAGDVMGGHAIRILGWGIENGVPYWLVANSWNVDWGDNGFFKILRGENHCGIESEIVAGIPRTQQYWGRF

SMILES: N=C(N)NCCC[C@H](NC(=O)[C@H](Cc1ccccc1)NC(=O)[C@H]1CCCN1)C(=O)CF [D-Pro-Phe-ArgCH2 F] (HELM PEPTIDE1{[dP].F.R.[FC[*:1]]}$$$$V2.0)
inhibition of plasma kallikrein (in words) [1]: inhibited

SMILES: CC(C)C[C@H](NC(=O)[C@H](N)C(C)C)C(=O)N[C@@H](CCCNC(=N)N)C(=O)CF [D-Val-Leu-ArgCH2 F] (HELM PEPTIDE1{[dV].L.R.[FC[*:1]]}$$$$V2.0)
inhibition of glandular kallikrein (in words) [2]: inhibited

SMILES: COC(=O)CCC(=O)NCC(=O)NCC(=O)NC(CCCNC(=N)N)C(=O)CF (stereo not drawn) [MeOSuc-Gly-Gly-ArgCH2 F]
inhibition of plasminogen activator (in words) [3]: inhibited

SMILES: NCCCCC(NC(=O)OCc1ccccc1)C(=O)CF (stereo not drawn) [Z-LysCH2 F]
inhibition of trypsin (in words) [4]: inhibited

.tau. Half-Time (half-time of inactivation) ([5]; rat KIDNEY homogenate): 76.6 min
.tau. Half-Time (half-time of inactivation) ([5]; rat LIVER homogenate): 66.5 min
.tau. Half-Time (half-time of inactivation) ([5]; rat PANCREAS homogenate): 21.4 min
.tau. Half-Time (half-time of inactivation) ([5]; rat SPLEEN homogenate): 74.2 min
SMILES: C[C@H](NC(=O)[C@H](Cc1ccccc1)NC(=O)OCc1ccccc1)C(=O)CCl [Z-Phe-AlaCH2 Cl]

.tau. Half-Time (half-time of inactivation) ([5]; rat KIDNEY homogenate): 7.9 min
.tau. Half-Time (half-time of inactivation) ([5]; rat LIVER homogenate): 8.5 min
.tau. Half-Time (half-time of inactivation) ([5]; rat PANCREAS homogenate): 12.4 min
.tau. Half-Time (half-time of inactivation) ([5]; rat SPLEEN homogenate): 14.2 min
inhibition of porcine pancreatic elastase (in words) [7]: inhibits
k3 /KI fold higher than for Z-Phe-AlaCHN2 ([8]; purified cathepsin B): 30 fold
Ki ([8]; purified cathepsin B): 0.57 ± 0.09 µM
k3 /KI (inhibitor specificity constant) ([8]; purified cathepsin B): 16,200 M^-1 s^-1
SMILES: CC(NC(=O)[C@H](Cc1ccccc1)NC(=O)OCc1ccccc1)C(=O)CF (stereo partly drawn) [Z-Phe-AlaCH2 F, 3-(N-Benzyloxycarbonylphenylalanylamido)-1-fluoro-2-butanone]
inhibition of cathepsin L (in words) [6]: inhibited
inhibition of purified cathepsin B (in words) ([8]; 0.1 μM inhibitor): effective inhibitor
k3 (rate constant of inactivation) ([8]; purified cathepsin B): 9.2±1.3×10^-3 s^-1

.tau. Half-Time (half-time of inactivation) ([5]; rat KIDNEY homogenate): 20.1 min
.tau. Half-Time (half-time of inactivation) ([5]; rat LIVER homogenate): 22.4 min
.tau. Half-Time (half-time of inactivation) ([5]; rat PANCREAS homogenate): 15.8 min
.tau. Half-Time (half-time of inactivation) ([5]; rat SPLEEN homogenate): 26.4 min
Ki ([8]; purified cathepsin B): 7.4 ± 3 µM
k3 /KI (inhibitor specificity constant) ([8]; purified cathepsin B): 546 M⁻¹ s⁻¹
SMILES: C[C@H](NC(=O)[C@H](Cc1ccccc1)NC(=O)OCc1ccccc1)C(=O)C=[N+]=[N-] [Z-Phe-AlaCHN2]
k3 (rate constant of inactivation) ([8]; purified cathepsin B): 4.1±1.7×10^-3 s^-1

SMILES: O=C(N[C@@H](Cc1ccccc1)C(=O)NC(Cc1ccccc1)C(=O)CF)OCc1ccccc1 (stereo partly drawn) [Z-Phe-PheCH2 F] (Cbz-Phe-[ξF]-CH2F)
inhibition of cathepsin L (in words) [6]: inhibited
